Results published in patent US20230013402A1, “REGENERATING FUNCTIONS AND PHENOTYPES OF CONNECTIVE TISSUE THROUGH NPAS2 SUPPRESSION” (The Regents of the University of California, priority 2019, published 2023).
Counter-ions that a name gives are not always drawn. Like-named read-outs stand apart in the source and are kept apart here.

What was measured:
[1] = system: human skin fibroblasts; experiment: High-throughput cell migration assay (Oris Pro Cell Migration Assay plate) / standardized viability; type: cell-based
Description: (§1) Mouse MSC carrying Npas2-LacZ reporter gene, as described by Hassan N, et al., PLoS One. 2017; 12(8):e0183359, which is incorporated by reference herein in its entirety, was immortalized using SV40 in order to accommodate a large-scale HTS. […] This cell system was used to screen FDA Approved Drug Library (1120 compounds). The same library was also screened for cell viability by Calcein AM Hoechst 33342 staining Cell migration assays using the Oris™ Pro Cell Migration Assay plate, as described by Joy M E et al., PloS one. 2014; 9(2):e88350, which is incorporated by reference herein in its entirety, was used for a high-throughput migration assay using human skin fibroblasts
(§2) The combined Z score was used to identify hit compounds (Table 1).

[2] = system: Npas2-LacZ reporter gene (Npas2 expression); experiment: High throughput screening of FDA Approved Drug Library for Npas2-LacZ reporter expression; type: cell-based, mouse
Description: as §1, §2

[3] = system: Npas2-LacZ expression; experiment: High throughput screening of LOPAC1280 for Npas2-LacZ expression of mouse BMSC; type: cell-based; design: concentration or dose not given beside the values; settings: Activity against negative controls in LOPAC screening; Npas2 downregulation
Description: FIGS. 13A-13C show an unbiased chemical genetics analysis was used to determine the molecular mechanisms underlying implant osseointegration. […] Hit compounds were identified as z-score >2.5 or <−2.5.
Femur BMSC derived from Npas2−/− mouse was previously characterized for the expression of LacZ, as described by Hassan, N., et al., (2017) Titanium biomaterials with complex surfaces induced aberrant peripheral circadian rhythms in bone marrow mesenchymal stromal cells. PLoS One 12, e0183359, which is incorporated by reference herein in its entirety, which was used for high throughput screening of LOPAC 1280 (FIG. 13A). […] The validation study identified a total of 14 compounds (FIG. 13C), which were subjected to the chemical genetics analysis. […] By contrast, Npas2 down regulating compounds stimulate or accumulate cAMP, or induce cAMP response element binding (CREB) activation (Table 3).

[4] = system: fibroblasts; settings: in vitro, compared to vehicle; cited from earlier work
[5] = Table 2, additional Npas2 expression suppressors
[6] = Table 1, HTS of FDA Drug Library
[7] = Table 1, combined Z score (product)

Compound | Migration (standardized viability) Z Score [1, 5] | NPAS2 Z Score [2, 5] | further results
OCC(O)CN1CCN(c2ccccc2)CC1 (racemic) [Dropropizine (R,S)] | −1.21 | −2.27 | 
CCCCCC[C@H]1C(=O)O[C@H](C)[C@H](NC(=O)c2cccc(NC=O)c2O)C(=O)O[C@@H](C)[C@@H]1OC(=O)CC(C)C (stereo in doubt) [Antimycin A] |  |  | Migration (standardized viability) Z Score [1, 6]: 2.13; NPAS2 Z Score [2, 6]: −2.72; NPAS Z × ViabilityZ [2, 7]: −5.79
CC(C)NC[C@H](O)COc1ccc(CC(N)=O)cc1 [(S)-(-)-Atenolol, (S)-(−)-Atenolol] |  |  | NPAS2 Z Score [2]: −2
CC(=O)OC1CN2CCC1CC2.Cl (stereo not drawn) [Aceclidine Hydrochloride] | 0.198 | −2.2 | 
O=C(O)COC(=O)Cc1ccccc1Nc1c(Cl)cccc1Cl [Aceclofenac] | 0.666 | −2.16 | 
CCCNC(C)C(=O)Nc1c(C)csc1C(=O)OC.Cl (stereo not drawn) [Articaine hydrochloride] | −0.466 | −2.02 | 
CN1[C@@H]2CC[C@H]1CC(OC(=O)C(CO)c1ccccc1)C2.CN1[C@@H]2CC[C@H]1CC(OC(=O)C(CO)c1ccccc1)C2.O.O=S(=O)(O)O (stereo partly drawn) [Atropine sulfate monohydrate] |  | −2.04 | NpasZ × ViabilityZ ([2]; Table 2, combined Z score (product)): −0.3692
CN(Cc1ccc(C(C)(C)C)cc1)Cc1cccc2ccccc12.Cl [Butenafine Hydrochloride] | 0.239 | −2.02 | 
NC(=O)OCC(O)COc1ccc(Cl)cc1 (stereo not drawn) [Chlorphensin carbamate] | −0.157 | −2.36 | 
C[C@@H]1C[C@@H]([C@H](O)CC2CC(=O)NC(=O)C2)C(=O)[C@@H](C)C1 [Cycloheximide] | −4.91 | −3.29 | 
COc1cccc2c1C(=O)c1c(O)c3c(c(O)c1C2=O)C[C@@](O)(C(C)=O)C[C@@H]3O[C@H]1CC(N)[C@H](O)C(C)O1.Cl (stereo partly drawn) [Daunorubicin hydrochloride] | −4.56 | −2.45 | 
CCN(CC)C(=O)N1CCN(C)CC1.O=C(O)CC(O)(CC(=O)O)C(=O)O [Diethylcarbamazine citrate] | −2.08 | −2.36 | 
O=C(OC1C[C@@H]2CC3C[C@H](C1)N2CC3=O)c1c[nH]c2ccccc12 (stereo partly drawn) [Dolasetron mesilate] | −1.91 | −2.64 | 
C[C@H]1CCC/C=C/[C@@H]2C[C@H](O)C[C@H]2[C@H](O)/C=C/C(=O)O1 [Down01, Brefeldin A] |  |  | % Activity [3]: −45.4%
COc1cc2c(c(OC)c1OC)-c1ccc(OC)c(=O)cc1[C@@H](NC(C)=O)CC2 [Down03, Colchicine] |  |  | % Activity [3]: −29.7%
CC[n+]1c(/C=C/C=C2/N(C)c3ccccc3C2(C)C)sc2ccccc21.[I-] [Down06, AC-93253 iodide] |  |  | % Activity [3]: −25.1%
c1ccc2c(c1)[I+]c1ccccc1-2 [Down08, Diphenyleneiodonium chloride] |  |  | % Activity [3]: −18.6%
COc1cc([C@@H]2c3cc4c(cc3[C@H](O)[C@H]3COC(=O)[C@H]23)OCO4)cc(OC)c1OC [Down10, Podophyllotoxin] |  |  | % Activity [3]: −15.6%
C/C=C(/C)C(=O)O[C@H]1C(C)=C2[C@H]([C@@H]1OC(=O)CCCCCCC)[C@@](C)(OC(C)=O)C[C@H](OC(=O)CCC)[C@@]1(O)[C@H]2OC(=O)[C@@]1(C)O [Down12, THAPSIGARGIN] |  |  | % Activity [3]: −43.5%
CCN(CC)CCOc1ccc(Nc2ncc3cc(-c4c(Cl)cccc4Cl)c(=O)n(C)c3n2)cc1 [Down13, PD-166285 hydrate] |  |  | % Activity [3]: −35.5%

Compound | Migration (standardized viability) Z Score [1, 5] | NPAS2 Z Score [2, 5] | further results
Cn1c(=O)c(-c2c(Cl)cccc2Cl)cc2cnc(Nc3ccc(N4CCOCC4)cc3)nc21 [Down14, PD-173952] |  |  | % Activity [3]: −33.0%
Clc1ccc(COC(Cn2ccnc2)c2ccc(Cl)cc2Cl)cc1 (stereo not drawn) [Econazole nitrate] | 0.805 | −2.41 | 
C[C@]12CC[C@@H]3c4ccc(O)cc4CC[C@H]3[C@@H]1CCC2=O [Estrone] | −2.56 | −2.01 | 
O=[N+]([O-])O[C@@H]1CO[C@H]2[C@@H]1OC[C@@H]2O [Isosorbide mononitrate] | 0.647 | −2.01 | 
S=c1nc[nH]c2nc[nH]c12 [MS-1500387, Mercaptopurine] | 0.577 | −2.08 | 
CCOC(=O)[C@H](CCc1ccccc1)N[C@@H](C)C(=O)N1CCC[C@H]1C(=O)O [MS-1501214, enalapril maleate] | −1.53 | −3.22 | 
Cl.NCc1ccc(S(N)(=O)=O)cc1 [Mafenide hydrochloride] | −0.188 | −2.8 | 
CCN(CC)CCNC(=O)COc1ccc(OC)cc1.Cl [Mefexamide hydrochloride, mefexamide hydrochloride] |  |  | Migration (standardized viability) Z Score [1, 6]: 1.12; NPAS2 Z Score [2, 6]: −2.06; NPAS Z × ViabilityZ [2, 7]: −2.31
CCc1c(C)[nH]c2c1C(=O)C(CN1CCOCC1)CC2.Cl (stereo not drawn) [Molindone hydrochloride] |  |  | Migration (standardized viability) Z Score [1, 6]: 1.22; NPAS2 Z Score [2, 6]: −2.1; NPAS Z × ViabilityZ [2, 7]: −2.56
CC[C@@]1([C@@H]2OC(C3O[C@@](O)(CO)[C@H](C)C[C@@H]3C)C[C@@H]2C)CC[C@H]([C@]2(C)CC[C@@]3(C[C@H](O)[C@@H](C)C([C@@H](C)[C@@H](OC)[C@H](C)C(=O)O)O3)O2)O1 (stereo partly drawn) [Monensin sodium salt] | −8.13 | −4.34 | 
Cc1c(NC(=O)c2cccnc2)c(=O)n(-c2ccccc2)n1C [Nifenazone] | −0.243 | −2.41 | 
O=C(O)c1cccnc1Nc1cccc(C(F)(F)F)c1 [Niflumic Acid, Niflumic acid] |  |  | Migration (standardized viability) Z Score [1, 6]: 1.79; NPAS2 Z Score [2, 6]: −1.99; NPAS Z × ViabilityZ [2, 7]: −3.56
O=C(N/N=C/c1ccc([N+](=O)[O-])o1)c1ccc(O)cc1 [Nifuroxazide] | −0.402 | −3.43 | 
CC[C@H](C)C(=O)O[C@H]1C[C@H](O)C=C2C=C[C@H](C)[C@H](CC[C@@H](O)C[C@@H](O)CC(=O)O)[C@H]21 [Pravastatin] | 0.64 | −2.16 | 
C[C@]12C=CC(=O)C=C1CC[C@@H]1[C@@H]2[C@@H](O)C[C@@]2(C)[C@H]1CC[C@]2(O)C(=O)CO [Prednisolone] | −2.31 | −2.42 | 
CNCC[C@@H](Oc1ccccc1C)c1ccccc1 [SAM001246626, Atomoxetine hydrochloride] | −0.749 | −2.6 | 
Cn1cnc2c1c(=O)[nH]c(=O)n2C [Theobromine] | −0.6 | −2.04 | 
CN1C(=O)OC(C)(C)C1=O [Trimethadione] | −0.105 | −2.74 | 
NCCc1c[nH]c2ccc(O)cc12 [serotonin] |  |  | Width of scratch zone [4]: reduced
Tyloxapol |  |  | Migration (standardized viability) Z Score [1]: 0.572; NPAS2 Z Score [2]: −2.39; NpasZ × ViabilityZ [2]: −1.367
